Data set [1] in a line: Cmax in Sprague-Dawley rat at 10 mg/kg, po administered via gavage by LC-MS/MS analysis. It counts as ADME, organism-based. Set-up: dose 10 mg/kg, route oral. Particulars: in vivo.
Data set [2] in a line: Tmax in Sprague-Dawley rat at 10 mg/kg, po administered via gavage by LC-MS/MS analysis. It counts as ADME, organism-based. The conditions noted are these: in vivo.
Data set [3] can be described thus: Elimination half life in Sprague-Dawley rat at 10 mg/kg, po administered via gavage by LC-MS/MS analysis. It is filed as ADME, organism-based. The conditions noted are these: in vivo, read-out: beta t1/2 (converted).
Data set [4] in a line: AUC in Sprague-Dawley rat at 10 mg/kg, po administered via gavage by LC-MS/MS analysis. It is filed as ADME, organism-based. Particulars: in vivo.
Data set [5] can be described thus: Aqueous solubility of the compound. It is filed as physicochemical. Particulars: buffer.
The test system of data set [6] is MV4-11. Kind of data set: Antitumor activity against human MV4-11 cells xenografted in Balb/c nude mouse assessed as tumor growth inhibition at 100 mg/kg, po administered once daily for 30 days relative to control. It is filed as functional. The conditions noted are these: MV4-11, po, 720 h, read-out: TGI. On the technique in general: Xenograft models place foreign cells or tissue in a host animal.

Another data set has as its target PRMT5/MEP50 complex (Homo sapiens, UniProt O14744). Kind of data set: Inhibition of recombinant human N-terminal FLAG-tagged PRMT5 (2 to end residues)/human N-terminal His-tagged MEP50 (2 to end residues) expressed in HEK293F cells using H4 peptide as substrate preincubated for 15 mins followed by substrate and [3H]SAM addition and measured after 1 hr by scintillation counting method.

Data set [7] concerns MV4-11. Briefly: Antiproliferative activity against human MV4-11 cells supplemented with fresh medium containing compound every 4 days measured on day 8 by Celltiter-glo luminescent cell viability assay. It counts as functional. For orientation: In ATP-based viability assays light output follows the ATP content of the culture.
The test system of data set [8] is MV4-11. Kind of data set: Antiproliferative activity against human MV4-11 cells supplemented with fresh medium containing compound every 4 days measured on day 12 by Celltiter-glo luminescent cell viability assay. It is filed as functional.
Data set [9] addresses Protein arginine N-methyltransferase 1 (Homo sapiens, UniProt Q99873). Briefly: Inhibition of human N-terminal GST-tagged PRMT1 (2 to end residues) expressed in baculovirus infected Sf9 insect cells preincubated for 15 mins followed by substrate and [3H]SAM addition and measured after 1 hr by microbeta method.
Data set [10] has as its target Protein arginine N-methyltransferase 3 (Homo sapiens, UniProt O60678). Kind of data set: Inhibition of human N-terminal GST-tagged PRMT3 (2 to end residues) expressed in Escherichia coli preincubated for 15 mins followed by substrate addition and measured after 1 hr by Alphalisa assay.
Data set [11] concerns the target T1, Histone-arginine methyltransferase CARM1 (Homo sapiens, UniProt Q86X55).
T1 sequence (Q86X55 whole entry): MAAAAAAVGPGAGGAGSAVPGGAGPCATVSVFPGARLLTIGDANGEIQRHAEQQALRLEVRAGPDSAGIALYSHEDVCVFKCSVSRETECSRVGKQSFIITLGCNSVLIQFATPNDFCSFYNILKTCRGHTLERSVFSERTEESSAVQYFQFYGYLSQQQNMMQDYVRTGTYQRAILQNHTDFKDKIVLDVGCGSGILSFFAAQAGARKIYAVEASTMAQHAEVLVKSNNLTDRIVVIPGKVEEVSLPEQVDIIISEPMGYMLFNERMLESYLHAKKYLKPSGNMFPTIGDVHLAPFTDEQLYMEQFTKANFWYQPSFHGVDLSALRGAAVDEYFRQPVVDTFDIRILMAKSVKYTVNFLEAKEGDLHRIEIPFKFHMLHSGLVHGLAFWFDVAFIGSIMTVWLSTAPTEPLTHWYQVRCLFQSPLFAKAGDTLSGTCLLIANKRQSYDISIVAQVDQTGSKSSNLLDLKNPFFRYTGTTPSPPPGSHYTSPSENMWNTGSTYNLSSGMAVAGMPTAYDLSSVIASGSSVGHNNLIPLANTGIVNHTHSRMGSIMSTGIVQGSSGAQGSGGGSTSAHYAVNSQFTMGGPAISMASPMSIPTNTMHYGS
Briefly: Inhibition of human N-terminal FLAG-tagged PRMT4 (2 to end residues) expressed in FreeStyle 293-F cells preincubated for 15 mins followed by substrate addition and measured after 1 hr by Alphalisa assay. It is filed as cell-based.

Data set [12] concerns the target Protein arginine N-methyltransferase 6 (Homo sapiens, UniProt Q96LA8). Briefly: Inhibition of human N-terminal His-tagged PRMT6 (2 to 375 residues) expressed in Escherichia coli preincubated for 15 mins followed by substrate addition and measured after 1 hr by Alphalisa assay. For orientation: Bead proximity is the source of the signal in Alpha formats.
The target in data set [13] is T2, Protein arginine N-methyltransferase 7 (Homo sapiens, UniProt Q9NVM4).
T2 sequence (Q9NVM4 whole entry): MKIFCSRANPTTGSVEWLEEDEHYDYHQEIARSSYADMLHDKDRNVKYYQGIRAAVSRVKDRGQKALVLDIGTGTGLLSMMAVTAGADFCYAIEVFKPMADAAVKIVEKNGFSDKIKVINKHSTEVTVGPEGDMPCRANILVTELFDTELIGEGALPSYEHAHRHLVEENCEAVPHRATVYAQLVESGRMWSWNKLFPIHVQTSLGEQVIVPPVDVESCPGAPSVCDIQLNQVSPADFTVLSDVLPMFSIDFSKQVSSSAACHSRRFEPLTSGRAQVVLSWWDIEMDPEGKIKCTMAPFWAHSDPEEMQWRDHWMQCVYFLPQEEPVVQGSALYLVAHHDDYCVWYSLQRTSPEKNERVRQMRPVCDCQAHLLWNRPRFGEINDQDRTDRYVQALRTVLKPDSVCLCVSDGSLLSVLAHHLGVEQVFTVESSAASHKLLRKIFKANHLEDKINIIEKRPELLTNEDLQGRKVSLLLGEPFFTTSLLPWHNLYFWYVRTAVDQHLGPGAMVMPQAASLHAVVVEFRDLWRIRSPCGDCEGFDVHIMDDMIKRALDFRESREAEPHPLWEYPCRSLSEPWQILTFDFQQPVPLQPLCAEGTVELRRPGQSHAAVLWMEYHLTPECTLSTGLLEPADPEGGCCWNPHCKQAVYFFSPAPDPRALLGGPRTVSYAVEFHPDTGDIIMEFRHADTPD
Kind of data set: Inhibition of recombinant full length human N-terminal FLAG-tagged PRMT7 expressed in Sf9 insect cells preincubated for 15 mins followed by substrate and [3H]SAM addition and measured after 240 mins by microbeta method.

Data set [14] concerns the target Protein arginine N-methyltransferase 8 (Homo sapiens, UniProt Q9NR22). Kind of data set: Inhibition of human N-terminal His/FLAG-tagged PRMT8 (61 to 394 residues) expressed in baculovirus infected Sf9 insect cells preincubated for 15 mins followed by substrate addition and measured after 1 hr by Alphalisa assay.
The target of data set [15] is Protein arginine N-methyltransferase 5 (Homo sapiens) (UniProt O14744). Briefly: Inhibition of PRMT5 in human MV411 cells assessed as reduction in SmD3 methylation after 4 days by Western blot analysis. It counts as cell-based.

Some results are limits rather than exact numbers.

What is called Cmax is the peak of the concentration-time curve. What is called Tmax is the time at which the peak concentration occurs. One may read the AUC as concentration integrated over time. Read a high AUC as high exposure. What is called IC50 is the point on the concentration scale where inhibition reaches its midpoint. Usually GI50 stands for the concentration that inhibits growth by half.

Chain of PRMT5/MEP50 complex (O14744 whole entry): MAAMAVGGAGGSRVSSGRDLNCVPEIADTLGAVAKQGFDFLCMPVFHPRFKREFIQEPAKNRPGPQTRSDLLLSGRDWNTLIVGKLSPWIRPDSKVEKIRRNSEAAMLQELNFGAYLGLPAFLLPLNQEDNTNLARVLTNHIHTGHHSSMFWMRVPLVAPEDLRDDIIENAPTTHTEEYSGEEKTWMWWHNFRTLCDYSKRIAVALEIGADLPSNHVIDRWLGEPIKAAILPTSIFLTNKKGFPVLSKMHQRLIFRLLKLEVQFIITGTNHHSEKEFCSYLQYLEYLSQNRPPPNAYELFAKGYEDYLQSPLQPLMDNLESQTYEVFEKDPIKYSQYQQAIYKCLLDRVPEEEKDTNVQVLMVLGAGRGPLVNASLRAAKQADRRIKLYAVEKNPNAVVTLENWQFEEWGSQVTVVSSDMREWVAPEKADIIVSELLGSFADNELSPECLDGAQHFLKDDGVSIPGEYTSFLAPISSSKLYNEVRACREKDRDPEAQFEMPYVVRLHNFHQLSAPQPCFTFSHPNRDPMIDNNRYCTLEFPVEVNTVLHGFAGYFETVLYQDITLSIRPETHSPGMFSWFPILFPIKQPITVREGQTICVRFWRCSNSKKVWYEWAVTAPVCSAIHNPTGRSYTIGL
Chain of PRMT5/MEP50 complex (Q9BQA1 whole entry, further chain): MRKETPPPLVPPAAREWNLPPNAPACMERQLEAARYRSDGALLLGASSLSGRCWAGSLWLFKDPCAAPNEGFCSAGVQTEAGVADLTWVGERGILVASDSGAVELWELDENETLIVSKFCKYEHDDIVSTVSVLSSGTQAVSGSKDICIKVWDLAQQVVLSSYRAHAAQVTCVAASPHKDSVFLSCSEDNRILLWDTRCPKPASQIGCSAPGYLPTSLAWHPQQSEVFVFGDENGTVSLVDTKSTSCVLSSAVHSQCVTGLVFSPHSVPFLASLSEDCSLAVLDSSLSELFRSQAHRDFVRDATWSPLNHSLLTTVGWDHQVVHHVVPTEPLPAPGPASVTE
Chain of Protein arginine N-methyltransferase 6 (Q96LA8 whole entry, the tested form may be a part): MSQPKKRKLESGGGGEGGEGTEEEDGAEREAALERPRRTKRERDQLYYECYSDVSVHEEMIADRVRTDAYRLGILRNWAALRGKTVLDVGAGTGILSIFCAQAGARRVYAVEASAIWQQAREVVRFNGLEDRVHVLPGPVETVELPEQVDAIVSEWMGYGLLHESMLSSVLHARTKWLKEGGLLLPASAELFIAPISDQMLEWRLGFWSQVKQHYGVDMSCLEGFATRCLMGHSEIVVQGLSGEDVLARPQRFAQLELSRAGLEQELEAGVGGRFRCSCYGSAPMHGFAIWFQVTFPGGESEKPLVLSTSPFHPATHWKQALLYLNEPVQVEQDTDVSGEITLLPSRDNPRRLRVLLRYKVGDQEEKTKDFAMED
Chain of Protein arginine N-methyltransferase 3 (O60678 whole entry): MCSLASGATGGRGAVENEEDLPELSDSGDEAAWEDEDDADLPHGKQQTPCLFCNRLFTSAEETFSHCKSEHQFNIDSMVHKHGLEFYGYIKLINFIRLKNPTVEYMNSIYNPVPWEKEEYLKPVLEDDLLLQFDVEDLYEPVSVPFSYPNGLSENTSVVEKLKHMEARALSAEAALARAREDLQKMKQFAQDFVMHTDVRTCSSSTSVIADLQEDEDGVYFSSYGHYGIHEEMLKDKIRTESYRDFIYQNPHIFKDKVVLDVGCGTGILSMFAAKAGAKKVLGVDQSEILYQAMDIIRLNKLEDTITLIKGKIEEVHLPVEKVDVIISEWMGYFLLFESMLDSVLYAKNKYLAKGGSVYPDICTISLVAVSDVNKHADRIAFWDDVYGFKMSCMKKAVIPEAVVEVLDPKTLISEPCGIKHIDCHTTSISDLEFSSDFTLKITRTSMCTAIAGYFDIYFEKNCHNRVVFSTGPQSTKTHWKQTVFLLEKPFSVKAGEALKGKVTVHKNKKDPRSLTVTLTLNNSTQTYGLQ
Chain of Protein arginine N-methyltransferase 1 (Q99873 whole entry): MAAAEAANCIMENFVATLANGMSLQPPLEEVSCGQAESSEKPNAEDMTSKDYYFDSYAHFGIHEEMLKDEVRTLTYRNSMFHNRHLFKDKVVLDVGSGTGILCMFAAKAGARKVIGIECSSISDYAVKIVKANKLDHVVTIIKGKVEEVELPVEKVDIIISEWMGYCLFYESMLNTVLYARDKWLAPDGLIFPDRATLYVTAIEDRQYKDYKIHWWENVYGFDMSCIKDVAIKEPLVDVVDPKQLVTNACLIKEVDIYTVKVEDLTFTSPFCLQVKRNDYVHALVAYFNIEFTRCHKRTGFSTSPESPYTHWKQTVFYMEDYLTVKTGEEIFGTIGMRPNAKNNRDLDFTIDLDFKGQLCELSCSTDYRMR
Chain of Protein arginine N-methyltransferase 8 (Q9NR22 whole entry, the tested form may be a part): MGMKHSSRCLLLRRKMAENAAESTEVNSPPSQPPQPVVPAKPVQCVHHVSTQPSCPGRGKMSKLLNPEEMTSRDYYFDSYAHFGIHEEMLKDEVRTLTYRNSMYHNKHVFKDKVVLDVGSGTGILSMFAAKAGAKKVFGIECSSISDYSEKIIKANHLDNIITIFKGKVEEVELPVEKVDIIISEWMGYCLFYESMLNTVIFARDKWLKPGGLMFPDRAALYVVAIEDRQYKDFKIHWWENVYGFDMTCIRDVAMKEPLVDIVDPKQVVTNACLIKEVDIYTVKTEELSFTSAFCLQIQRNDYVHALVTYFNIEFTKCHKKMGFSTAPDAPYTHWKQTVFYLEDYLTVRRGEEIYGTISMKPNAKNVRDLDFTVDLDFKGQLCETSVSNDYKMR
Chain of Protein arginine N-methyltransferase 5 (Homo sapiens) (O14744 whole entry): as the sequence (O14744 whole entry) above

In data set [1], `Cl.O=C(NC[C@H](O)CN1CCc2ccccc2C1)c1ccc2c(c1)CCN(C(=O)c1ccc(Br)cc1)C2` had a maximum concentration (Cmax) of 32 ng/mL. Also, the Tmax in data set [2] came out at 35 min. Also, the half-life in data set [3] was 276 min. In data set [4], this compound had an AUC of 168 ng·h/mL. Further, the solubility entry in [5] is reported as “Soluble”. Moreover, the inhibition in vivo at 100 mg/kg in the data set with MV4-11 [6] worked out at 54%.

On to `CN(C)c1ccc(C(=O)N2CCc3cc(C(=O)NC[C@H](O)CN4CCc5ccccc5C4)ccc3C2)cc1.Cl`, for which the concentration in data set [1] peaked (Cmax) at 14.3 ng/mL. In data set [2], the time to peak (Tmax) amounted to 20 min. The half-life in [3] is 56.7 min. The same compound registered an AUC in [4] of 15.8 ng·h/mL.

In the case of `O=C(NC[C@H](O)CN1CCc2ccccc2C1)c1ccc2c(c1)CCN(C(=O)c1ccc(Br)cc1)C2` [listing 1 of 2 here], the IC50 on PRMT5/MEP50 complex is 8.5 nM; in data set [9], above 100000 nM; in data set [10], above 100000 nM; in data set [11], above 100000 nM; in data set [12] it was above 100000 nM; in data set [13], above 100000 nM. Also, in data set [14], the IC50 is above 100000 nM. Besides, the GI50 with MV4-11 [7] worked out at 25 nM; with MV4-11 [8], 18 nM. The solubility entry in data set [5] is “Insoluble”.

The compound `COc1ccc(C(=O)N2CCc3cc(C(=O)NC[C@H](O)CN4CCc5ccccc5C4)ccc3C2)cc1.Cl` had a Cmax in data set [1] of 102 ng/mL. The time to peak (Tmax) in [2] is 25 min. The half-life in [3] was 128 min. Further, the AUC in data set [4] was 94.6 ng·h/mL.

For `O=C(NC[C@H](O)CN1CCc2ccccc2C1)c1ccc2c(c1)CCN(C(=O)c1ccc(Br)cc1)C2` [listing 2 of 2 here], the inhibition entry in data set [15] was “Dose-dependent effect”.

Regarding `O=C(NCC(O)CN1CCc2ccccc2C1)c1cc2c(s1)CCN(C(=O)c1ccncc1)C2` (centres undefined), on PRMT5/MEP50 complex, the IC50 came out at 45 nM. Moreover, the GI50 in the data set with MV4-11 [7] worked out at 253 nM; in the data set with MV4-11 [8] it was 110 nM.

With `O=C(NC[C@@H](O)CN1CCc2ccccc2C1)c1ccc2c(c1)CCN(C(=O)c1ccc(Br)cc1)C2`, the IC50 at PRMT5/MEP50 complex worked out at 59 nM. Moreover, the GI50 in the data set on MV4-11 [7] was determined as 213 nM; with MV4-11 [8], 187 nM.

Turning to `O=C(NCC(O)CN1CCc2ccccc2C1)c1cc2c(s1)CCN(C(=O)c1ccco1)C2` (centres undefined), on PRMT5/MEP50 complex, the half-inhibitory concentration (IC50) amounted to 25 nM. The results for the GI50 with MV4-11 [7] and in the data set with MV4-11 [8] were 239 nM and 160 nM, respectively.

These data come from ChEMBL document CHEMBL4411309, “Discovery of 2-substituted-N-(3-(3,4-dihydroisoquinolin-2(1H)-yl)-2-hydroxypropyl)-1,2,3,4-tetrahydroisoquinoline-6-carboxamide as potent and selective protein arginine methyltransferases 5 inhibitors: Design, synthesis and biological evaluation” (Eur J Med Chem, 2019).
